Laboratory results: the NIST ThermoML archive (doi:10.1021/je034102r)

Assay: molar heat capacity at constant pressure
Settings: 101.33 kPa, Liquid, heat bridge-scanning calorimeter

CCCCn1cc[n+](C)c1.F[P-](F)(F)(F)(F)F [1-butyl-3-methylimidazolium hexafluorophosphate]
Settings | molar heat capacity at constant pressure [J/K/mol]
466.32 K | 494.48
466.46 K | 494.76
466.59 K | 495.05
466.73 K | 495.9
466.87 K | 495.33
467 K | 495.33
467.14 K | 495.33
467.28 K | 495.05
467.41 K | 495.33
467.55 K | 495.05
467.84 K | 495.05
467.98 K | 495.33
468.12 K | 495.33
468.25 K | 495.9
468.39 K | 495.9
468.52 K | 495.61
468.66 K | 495.61
468.8 K | 495.33
468.93 K | 495.05
469.25 K | 495.33
469.38 K | 495.33
469.52 K | 495.33
469.66 K | 495.33
469.79 K | 495.61
469.93 K | 495.61
470.07 K | 495.61
470.2 K | 495.61
470.34 K | 496.18
470.48 K | 495.61
470.61 K | 495.9
470.91 K | 495.9
471.04 K | 496.18
471.18 K | 496.47
471.32 K | 496.47
471.45 K | 496.47
471.59 K | 496.47
471.73 K | 496.47
471.87 K | 496.18
472 K | 496.47
472.3 K | 496.47
472.44 K | 496.47
472.58 K | 496.47
472.71 K | 496.75
472.85 K | 496.75
472.99 K | 496.47
473.12 K | 496.47
473.26 K | 496.47
473.4 K | 496.47
473.53 K | 496.47
473.67 K | 497.03
473.97 K | 498.17
474.1 K | 497.6
474.24 K | 497.32
474.38 K | 497.32
474.51 K | 497.6
474.65 K | 497.32
474.79 K | 497.03
474.92 K | 496.75
475.06 K | 496.75
475.36 K | 496.75
475.5 K | 497.03
475.63 K | 496.75
475.78 K | 497.03
475.92 K | 497.03
476.06 K | 497.03
476.19 K | 497.03
476.33 K | 497.03
476.47 K | 497.32
476.61 K | 497.32
476.74 K | 497.32
477.04 K | 497.6
477.18 K | 497.32
477.31 K | 497.6
477.45 K | 498.17
477.59 K | 497.89
477.72 K | 497.89
477.86 K | 497.89
478 K | 497.6
478.13 K | 497.6
478.44 K | 497.6
478.57 K | 497.6
478.71 K | 497.6
478.85 K | 497.6
478.98 K | 497.6
479.12 K | 497.89
479.26 K | 497.6
479.39 K | 497.6
479.53 K | 497.89
479.67 K | 497.89
479.81 K | 498.17
480.1 K | 498.17
480.24 K | 498.17
480.38 K | 497.89
480.51 K | 498.17
480.65 K | 498.17
480.79 K | 497.89
480.92 K | 498.17
481.06 K | 498.17
481.2 K | 498.17
481.5 K | 498.46
481.64 K | 498.74
481.78 K | 499.31
481.91 K | 498.74
482.05 K | 498.46
482.2 K | 498.46
482.34 K | 498.46
482.47 K | 498.46
482.61 K | 498.46
482.75 K | 498.46
482.89 K | 498.46
483.19 K | 498.46
483.32 K | 498.74
483.46 K | 499.02
483.6 K | 499.02
483.74 K | 499.31
483.87 K | 499.31
484.01 K | 499.31
484.15 K | 500.16
484.29 K | 500.16
484.59 K | 499.59
484.72 K | 499.59
484.86 K | 499.31
485 K | 499.59
485.14 K | 499.88
485.27 K | 499.59
485.41 K | 499.88
485.55 K | 499.59
485.69 K | 500.16
485.83 K | 500.45
485.96 K | 501.01
486.26 K | 500.73
486.4 K | 501.01
486.53 K | 501.01
486.67 K | 500.45
486.81 K | 500.16
486.95 K | 500.16
487.08 K | 500.45
487.22 K | 501.01
487.36 K | 500.73
487.66 K | 502.15
487.8 K | 501.58
487.94 K | 501.3
488.07 K | 501.01
488.21 K | 501.01
488.35 K | 501.87
488.48 K | 501.3
488.62 K | 501.01
488.77 K | 500.73
488.91 K | 501.3
489.05 K | 501.58
489.34 K | 501.01
489.48 K | 501.58
489.62 K | 501.3
489.75 K | 501.87
489.89 K | 501.3
490.03 K | 501.01
490.16 K | 501.3
490.3 K | 501.87
490.44 K | 501.01
490.74 K | 500.73
490.88 K | 501.3
491.02 K | 501.01
491.15 K | 501.01
491.29 K | 501.01
491.43 K | 501.01
491.56 K | 500.73
491.7 K | 501.3
491.84 K | 501.58
491.98 K | 501.3
492.11 K | 501.01
492.41 K | 501.3
492.55 K | 502.15
492.69 K | 501.87
492.82 K | 502.43
492.96 K | 502.72
493.1 K | 502.15
493.23 K | 501.87
493.37 K | 501.58
493.51 K | 501.3
493.81 K | 501.3
493.95 K | 502.43
494.09 K | 503.29
494.22 K | 502.72
494.36 K | 502.72
494.5 K | 502.72
494.64 K | 502.72
494.77 K | 502.72
494.91 K | 502.72
495.05 K | 502.72
495.2 K | 503.29
495.5 K | 502.72
